Experimental data from patent publication EP0095813A2, “Penetrating topical pharmaceutical compositions containing 9-(2-hydroxyethoxymethyl) guanine” (THE PROCTER & GAMBLE COMPANY, priority 1982, dated 1983).

Key:
[1] = cited from earlier work
[2] = Skin penetration study, Franz diffusion apparatus, transport across human epidermis in vitro; format: in vitro ADME; conditions: binary system with a cell-envelope disordering compound versus standard vehicle/solvent; heat-separated abdominal epidermis, about 31°C
Text: The following data illustrate the effects of incorporating 9-(2-hydroxyethoxymethyl) guanine into a standard vehicle/sol- vent versus the same pharmaceutical active used in a binary system with a cell-envelope disordering compound.
The above data reflect relative transport of 9-(2-hydroxyethoxymethyl) guanine across human epidermis in vitro.
In the above skin penetration studies, human skin, (heat- separated abdominal epidermis, taken at autopsy), was placed in a standard Franz diffusion apparatus (Crown Glass Co., Somerville, N.J.) in a horizontal position between a lower, capped diffusion cell and an upper, open cell. A normal saline solution was added to the lower diffusion cell, abutting the subcutaneous side of the skin, and the test composition comprising a solution of active drug in the carrier at indicated formulation was added to the diffusion cell abutting the epidermal side of the skin.
This cell assembly was kept in a constant-temperature room at about 31°C. At appropriate intervals, each diffusion cell assembly was opened and the diffusate from the cell abutting the subcutaneous side of the skin was withdrawn. Drug active in the diffusate was measured using standard analytical techniques. Each trial was run on a separate sample of human skin.

Penetration (relative transport across human epidermis in vitro) [2]: significantly enhanced
SMILES: Nc1nc2c(ncn2COCCO)c(=O)[nH]1 [9-(2-hydroxyethoxymethyl) guanine]
solubility in lipophilic solvent systems ([1]; lipophilic solvent systems): almost totally insoluble
solubility in water ([1]; water): slightly soluble
